Measured values as given in patent publication US6887669B1, “Reagents for assays for ligands” (Dade Behring Marburg GmbH, priority 1996, dated 2005).

How the values were obtained:
[1] = Background absorbance at 340 nm of Reagent A containing releasing agent; assay type: physicochemical; conditions: for C A 340 nm (background absorbance): 3 μL negative NHP + 72 μL water + 155 μL Reagent A, 0.6 cm path; for C A 340 nm (background absorbance) / D ΔA = agent - control ΔA 340 nm: ANS 0.25 mM, anisic acids 12.5 mM in Rgt A
Description: In both runs, the background absorbance at 340 nm for each Reagent A was measured in duplicate on a 230-μL combination of 3 μL negative NHP, 72 μL of deionized water, and 155 μL Reagent A. The cell path length was 0.6 cm. […] These changes are noted as follows. Reagent B and water were added in cycle 4. The analysis was finished at the end of cycle 15. Rates were determined using the 5 absorbance readings of cycles 11 through 15.

[2] = tested on: MPA bound to plasma proteins in normal human plasma (NHP); test: MPA enzyme immunoassay rates with releasing agents in Reagent A (NHP versus buffer), Example 2; conditions: for I (H-G) Buff Rate Span: 0 to 10 μg/mL MPA in buffer; for J (H-F) Buff-NHP Rate Diff.: 10 μg/mL MPA, closer to zero = better releasing effect; for G Buff with 0 μg/mL MPA Rate / H Buff with 10 μg/mL MPA Rate: 50 mM MES buffer pH 7.1; for G Buff with 0 μg/mL MPA Rate / H Buff with 10 μg/mL MPA Rate / E NHP with 0 μg/mL MPA Rate / F NHP with 10 μg/mL MPA Rate: ANS 0.25 mM, anisic acids 12.5 mM in Rgt A
Description: Rates were determined on a Cobas Mira Plus® instrument (Roche Diagnostics Systems, Inc., Branchburg, N.J.). The temperature was kept at 37° C. for the entire assay. Timings were carried out in cycles with each cycle being 25 seconds. In cycle 1, the first cycle, 75 μL of water and 3 μL of a sample were mixed with 155 μL of A diluent in a 0.6 cm path length cuvette. This mixture was incubated until the addition of Reagent B in cycle 7. […] In cycle 7, seventy-five μL of Reagent B followed by 20 μL of water was then added to the cuvette, mixed, and incubated until the end of cycle 25 at which time the assay was finished. During the assay, absorbance readings at 340 nm were made at the end of every cycle. A best linear fit was then made using only the 12 consecutive absorbance readings of cycles 14 through 25 versus time in minutes. The slope of this line was the rate.
In these experiments, the diluent for Reagent A (Rgt A) was made somewhat differently than that in Example 1. However, the composition was the same, except for component 7 (releasing agent, o-anisic acid) and component 10 (concentration of MPA antibody). Five diluents were prepared, four with one of each of the above agents and one control with no agent. First, a 2×solution was made in the manner described in Example 1 but which had only components 1 through 5 and 9 at twice the amounts listed. Next, for three of the diluents, each of the three anisic acid isomers was weighed to achieve a final molarity of 12.5 mM and predissolved in one quarter the final volume of water and a minimum amount of 6 N NaOH (approximately 6 drops per 0.2 grams anisic acid). For the fourth diluent, the agent, ANS, was weighed to give a 0.25 mM final concentration and added to one quarter the final volume of water. The fifth diluent, the control, had no releasing agent. To make each of these five diluents, the appropriate amounts of the 2×solution, the 1×amount of BSA, component 8, and the 1×amount of the Pluronic 25R solution, component 6, were combined. Four of these then received the appropriate agent. All were mixed well. Where necessary, pH adjustments were made as described previously and each preparation was brought to the final volume with deionized water to achieve 1× concentrations of components. Each of these A diluents was then filtered through a 0.2 micron filter. Final pH measurements on each were all between 5.5 to 5.7. For each of these five A diluents, a corresponding Reagent A was made by adding antibody to MPA for a final concentration of 6.5 μg/mL. Reagent B (Rgt B) was prepared as described in Example 1 except that component 20 was omitted and 0.1% BSA (Miles Diagnostics, Kankakee, Ill.) was substituted for BLG.
In a total of two runs the effects of each of the four agents relative to a control of no agent was examined with respect to (1) background absorbance at 340 nm, (2) the rate of a negative MPA sample, (3) the rate span between 0 and 10 μg/mL MPA, and (4) the closeness of rate matching of a 10 μg/mL MPA spike in NHP and in buffer. Both runs included the control Reagent A. The first run evaluated Reagent A with ANS while the second run evaluated Reagent A preparations containing the structural isomers of anisic acid.
MPA was spiked into NHP and buffer (Buff) to achieve a final concentration of 10 μg/mL MPA. Buffer in this example was 50 mM MES (2-[N-morpholino]ethanesulfonic acid, obtained from Sigma Chemical Company) with 0.1% (weight/volume) sodium azide, pH 7.1. As with PBS, this buffer has no protein and thus no protein binding of MPA can occur.
In both runs, the background absorbance at 340 nm for each Reagent A was measured in duplicate on a 230-μL combination of 3 μL negative NHP, 72 μL of deionized water, and 155 μL Reagent A. The cell path length was 0.6 cm. The average A340 (A=absorbance) values are found in Column C of Table 1. Duplicate rates were determined on the spiked and unspiked NHP and buffer similar to Example 1. […]

[3] = Discoloration of Reagent A on exposure to light; assay type: physicochemical; conditions: agent formulated in Reagent A
[4] = cited from earlier work
[5] = tested on: MPA bound to plasma proteins in normal human plasma pool (NHP); test: EMIT-type enzyme immunoassay for MPA with o-anisic acid in Reagent A: quantitation of MPA spike in NHP versus protein-free PBS; conditions: average of two spikes, formulation with o-anisic acid, pooled sd 0.4 μg/mL
Description: Reagent A was prepared by first making an anisic acid solution. Anisic acid was dissolved in 1 N NaOH in an amount equal to 25 mL per 1.52 grams of anisic acid. In a separate container was weighed 70% of the final weight of deionized water, to which was added components 1 through 5 inclusive and also component 6 using the prepared solution of Pluronic®25R2 at 10 mL thereof per 1017.9 g (or 1.0 liter) of final solution. This solution was stirred and the anisic acid solution was added. If necessary, the pH of the preparation was adjusted within the range of 5.50 to 5.70 with 6 N NaOH. Next, components 8 and 9 were added and the solution was stirred. If necessary, the pH was adjusted to the above range. […]
For Reagent B deionized water was weighed in an amount equal to 80% of the final weight. […] The conjugate, component 19, was added to achieve a rate of 300±10 mA/min; rate is defined as the change in absorbance at 340 nm per minute of reaction time and is usually expressed as mA/min.
Rates were determined on a Cobas Mira Plus® instrument (Roche Diagnostics Systems, Inc., Branchburg, N.J.). […] During the assay, absorbance readings at 340 nm were made at the end of every cycle. A best linear fit was then made using only the 12 consecutive absorbance readings of cycles 14 through 25 versus time in minutes. […]

[6] = tested on: MPA bound to plasma proteins in normal human plasma; test: MPA rates in plasma spikes in the presence of co-administered drugs and salicylate, with or without o-anisic acid, Example 4
Description: In a separate study, the ability of o-anisic acid to eliminate the effect of salicylate on rates of MPA plasma spikes was compared. Two sets of antibody reagents (Reagent A) were prepared to the basic formulation described in Example 2 above. In one reagent, no releasing agent was added; in another reagent, o-anisic acid was added at 12.5 mM. A common Reagent B was prepared as described in Example 2. Rates for four levels of MPA spikes into plasma and a plasma control were measured with each reagent set. […] Salicylate was present at 659 μg/mL. Rates were determined as described in Example 2 above with the exception of the absorbance read window, which was extended to cycle 20 where the assay was ended. Rates were determined using the 10 consecutive absorbance readings of cycles 11 through 20.

[7] = tested on: MPA enzyme immunoassay; test: Effect of salicylate as releasing agent on total dose-response curve of MPA enzyme immunoassay; conditions: salicylate used as releasing agent
Source text: Salicylate is known to increase MPA free fraction in normal human plasma when present at concentrations that may be observed in chronic administration of aspirin (Nowak, infra). […] It is also known that 8-anilino-1-naphthalenesulfonic acid (ANS) functions as a releasing agent in immunoassays (Nerli, et al., Arch Int Physiol Biochim Biophys (1994) 102(1):5-8 and Seth, et al., Clin Chem (1975) 21(10):1406-1413. However, ANS has disadvantages because of its background absorbance at 340 nm and its susceptibility to light degradation. The background absorbance is particularly disadvantageous in enzyme immunoassays. However, ANS has been used in certain enzyme assays under conditions where its disadvantages can be tolerated.

[8] = plasma + methanol control, o-anisic acid 12.5 mM in Reagent A
[9] = plasma with NI drugs + salicylate 659 μg/mL, o-anisic acid 12.5 mM in Reagent A
[10] = plasma with non-interfering co-administered drugs, o-anisic acid 12.5 mM in Reagent A
[11] = salicylate 659 μg/mL + NI drugs in plasma, no releasing agent in Reagent A

Compound | C A 340 nm (background absorbance) [1] | D ΔA = agent - control ΔA 340 nm [1] | I (H-G) Buff Rate Span [2] | J (H-F) Buff-NHP Rate Diff. [2] | G Buff with 0 μg/mL MPA Rate [2] | H Buff with 10 μg/mL MPA Rate [2] | E NHP with 0 μg/mL MPA Rate [2] | F NHP with 10 μg/mL MPA Rate [2] | also measured
O=S(=O)(O)c1cccc2cccc(Nc3ccccc3)c12 [ANS, 8-anilino-1-naphthalene sulfonic acid, reference compound] | 0.779 | 0.322 | 120.2 mA/min | 2.0 mA/min | 156.0 mA/min | 276.2 mA/min | 158.2 mA/min | 274.2 mA/min | discoloration of Reagent A when exposed to light [3]: visibly discolored when exposed to light
COc1c(C)c2c(c(O)c1C/C=C(\C)CCC(=O)OCCN1CCOCC1)C(=O)OC2 [MPA-M, morpholinoethyl (E)-6-(1,3-dihydro-4-hydroxy-6-methoxy-7-methyl-3-oxo-5-isobenzofuranyl)-4-methyl-4-hexenoate] | – | – | – | – | – | – | – | – | hydrolysis in vivo to MPA [4]: rapidly hydrolyzed in vivo to MPA
COc1cccc(C(=O)O)c1 [m-AA] | 0.494 | 0.008 | 90.3 mA/min | −0.6 mA/min | 189.4 mA/min | 279.7 mA/min | 188.1 mA/min | 280.3 mA/min | –
COc1ccccc1C(=O)O [o-AA, o-methoxybenzoic acid] | 0.490 | 0.004 | 109.3 mA/min | 0.6 mA/min | 168.2 mA/min | 277.5 mA/min | 169.5 mA/min | 276.9 mA/min | quantitation of a 10 μg/mL MPA spike in normal human plasma pool (NHP) [5]: 10.2 µg/mL; quantitation of a 10 μg/mL MPA spike in PBS ([5]; protein-free PBS): 10.4 µg/mL; effect of o-anisic acid in the antibody reagent on salicylate interference ([6]; o-anisic acid 12.5 mM in Reagent A): eliminated this potential problem; Rate, MPA + MeOH, 0 μg/mL MPA [6, 8]: 161; Rate, MPA + MeOH, 0.5 μg/mL MPA [6, 8]: 171; Rate, MPA + MeOH, 2.5 μg/mL MPA [6, 8]: 210; Rate, MPA + MeOH, 5 μg/mL MPA [6, 8]: 234; Rate, MPA + MeOH, 15 μg/mL MPA [6, 8]: 264; Rate, MPA + NI + Salicylate, 0 μg/mL MPA [6, 9]: 161; Rate, MPA + NI + Salicylate, 0.5 μg/mL MPA [6, 9]: 171; Rate, MPA + NI + Salicylate, 2.5 μg/mL MPA [6, 9]: 211; Rate, MPA + NI + Salicylate, 5 μg/mL MPA [6, 9]: 234; Rate, MPA + NI + Salicylate, 15 μg/mL MPA [6, 9]: 263; Rate, MPA + NI, 0 μg/mL MPA [6, 10]: 161; Rate, MPA + NI, 0.5 μg/mL MPA [6, 10]: 173; Rate, MPA + NI, 2.5 μg/mL MPA [6, 10]: 211; Rate, MPA + NI, 5 μg/mL MPA [6, 10]: 234; Rate, MPA + NI, 15 μg/mL MPA [6, 10]: 263
COc1ccc(C(=O)O)cc1 [p-AA] | 0.494 | 0.008 | 96.0 mA/min | −2.1 mA/min | 182.3 mA/min | 278.3 mA/min | 182.7 mA/min | 280.4 mA/min | –
O=C(O)c1ccccc1O [salicylic acid, 2-hydroxybenzoic acid, reference compound] | – | – | – | – | – | – | – | – | absorbance above the control background at 340 nm ([1]; 25 mM in Reagent A): 0.311 absorbance units; effect of salicylate on rates of MPA in normal human plasma ([6]; absence of releasing agents): increased rates of MPA in normal human plasma; Rate, MPA + NI + Salicylate, 0.5 μg/mL MPA, Antibody Reagent Only [6, 11]: 157; Rate, MPA + NI + Salicylate, 2.5 μg/mL MPA, Antibody Reagent Only [6, 11]: 190; Rate, MPA + NI + Salicylate, 5 μg/mL MPA, Antibody Reagent Only [6, 11]: 210; Rate, MPA + NI + Salicylate, 15 μg/mL MPA, Antibody Reagent Only [6, 11]: 250; decrease in the total dose-response curve in an MPA enzyme immunoassay [7]: 25-50%
